Laboratory results as given in US10669272B2, “Substituted naphthyridinone compounds useful as T cell activators” (BRISTOL-MYERS SQUIBB COMPANY, priority 2018, dated 2020).
Where two headings read alike, the source gives them in different places.

Experiments:
human DGKα = target: T1, human DGKα (Homo sapiens, UniProt P23743); assay: DGKα LIPGLO assay (extruded liposome substrate), in vitro DGK inhibition; format: biochemical; conditions: read-out: DGKa LIPGLO IC50
T1 construct: TVMV protease cleavage site (C); Hexa-His (C); made in house; host or cells: Sf9 insect cells (baculovirus, Bac-to-Bac)

human DGKζ = target: T2, human DGKζ (Homo sapiens, UniProt Q13574); assay: DGKζ LIPGLO assay (extruded liposome substrate), in vitro DGK inhibition; format: biochemical; conditions: read-out: DGKz LIPGLO IC50
T2 construct: TVMV protease cleavage site (C); Hexa-His (C); made in house; host or cells: Sf9 insect cells (baculovirus, Bac-to-Bac)

Human venous whole blood = assay: Human whole blood IFN-γ assay; format: cell-based; conditions: human whole blood, read-out: INFg Whole Blood Normalized Agonist EC50;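 further: blood from healthy donors exposed to compound for 1 h before stimulation with anti-CD3 and anti-CD28 at 1 µg/mL each, IFN-γ quantified in supernatant by AlphaLISA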
[1] = Homo sapiens, 24 h, normalized to 3 μM reference compound with anti-CD3 plus anti-CD28 as 100% activation
[2] = normalized to 3 μM reference compound with anti-CD3 plus anti-CD28 as 100% activation
[3] = Homo sapiens, 24 h, anti-CD3 plus anti-CD28, 24 hours, 3 μM reference compound = 100% activation
[4] = anti-CD3 plus anti-CD28, 24 hours, 3 μM reference compound = 100% activation

T1 sequence (P23743 with tags, fused parts or gaps): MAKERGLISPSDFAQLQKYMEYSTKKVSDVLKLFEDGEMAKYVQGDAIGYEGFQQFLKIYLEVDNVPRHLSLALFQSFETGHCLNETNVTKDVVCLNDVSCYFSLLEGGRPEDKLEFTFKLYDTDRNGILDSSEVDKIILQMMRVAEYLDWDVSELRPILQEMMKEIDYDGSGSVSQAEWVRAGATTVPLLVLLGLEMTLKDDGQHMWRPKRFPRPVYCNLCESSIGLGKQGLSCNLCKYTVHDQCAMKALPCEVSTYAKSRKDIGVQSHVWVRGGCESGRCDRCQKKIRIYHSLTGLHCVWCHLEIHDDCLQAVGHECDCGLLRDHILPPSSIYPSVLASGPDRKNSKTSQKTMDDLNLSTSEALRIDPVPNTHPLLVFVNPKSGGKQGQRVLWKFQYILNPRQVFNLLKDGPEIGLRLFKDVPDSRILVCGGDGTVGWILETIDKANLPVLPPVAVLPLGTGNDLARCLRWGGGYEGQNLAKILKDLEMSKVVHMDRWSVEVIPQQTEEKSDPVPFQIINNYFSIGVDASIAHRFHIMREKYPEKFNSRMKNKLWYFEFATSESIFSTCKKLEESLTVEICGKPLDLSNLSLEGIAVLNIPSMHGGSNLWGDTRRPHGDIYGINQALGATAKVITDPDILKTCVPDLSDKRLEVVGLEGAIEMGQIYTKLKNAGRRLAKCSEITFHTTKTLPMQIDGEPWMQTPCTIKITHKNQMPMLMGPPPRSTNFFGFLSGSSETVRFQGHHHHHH
T2 sequence (Q13574 with tags, fused parts or gaps isoform Q13574-4): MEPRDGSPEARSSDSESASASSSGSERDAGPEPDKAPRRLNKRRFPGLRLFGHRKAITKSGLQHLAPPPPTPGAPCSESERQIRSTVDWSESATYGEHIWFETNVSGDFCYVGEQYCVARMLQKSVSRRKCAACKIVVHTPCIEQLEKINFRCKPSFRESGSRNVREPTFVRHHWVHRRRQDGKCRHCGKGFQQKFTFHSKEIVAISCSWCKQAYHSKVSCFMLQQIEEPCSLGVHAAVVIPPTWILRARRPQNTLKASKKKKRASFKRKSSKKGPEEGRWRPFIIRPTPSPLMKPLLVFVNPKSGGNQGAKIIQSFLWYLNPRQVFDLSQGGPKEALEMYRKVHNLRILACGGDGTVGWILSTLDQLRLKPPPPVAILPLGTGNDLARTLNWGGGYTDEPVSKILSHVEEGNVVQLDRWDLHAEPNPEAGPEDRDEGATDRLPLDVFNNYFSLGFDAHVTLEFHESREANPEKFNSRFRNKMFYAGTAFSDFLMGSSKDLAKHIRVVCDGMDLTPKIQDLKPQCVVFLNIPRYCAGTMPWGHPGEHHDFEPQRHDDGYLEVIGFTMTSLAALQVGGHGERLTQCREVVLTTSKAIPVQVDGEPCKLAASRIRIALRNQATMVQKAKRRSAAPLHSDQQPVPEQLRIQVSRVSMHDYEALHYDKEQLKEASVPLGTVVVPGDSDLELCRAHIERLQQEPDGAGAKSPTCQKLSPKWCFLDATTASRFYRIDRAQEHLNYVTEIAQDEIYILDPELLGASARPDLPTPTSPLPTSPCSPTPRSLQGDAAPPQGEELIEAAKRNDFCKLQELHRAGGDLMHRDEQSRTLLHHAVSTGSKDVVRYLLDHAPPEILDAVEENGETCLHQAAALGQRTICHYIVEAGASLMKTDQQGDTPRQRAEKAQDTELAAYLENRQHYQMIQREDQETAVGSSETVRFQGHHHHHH

Row | IC50 (human DGKα; liposome (LIPGLO) assay) [nM] | IC50 (human DGKζ; liposome (LIPGLO) assay) [nM] | IC50 (human DGKα; DGKα liposome (LIPGLO) assay) [nM] | IC50 (human DGKζ; DGKζ liposome (LIPGLO) assay) [nM] | SMILES | EC50 (Human venous whole blood; [1]) [nM] | EC50 (Human venous whole blood; [2]) [nM] | EC50 (Human venous whole blood; [3]) [nM] | EC50 (Human venous whole blood; [4]) [nM]
1 | 9000 | 21000 |  |  | C[C@@H]1CN(c2cc(=O)n(C)c3ccc(C#N)nc23)[C@@H](C)CN1C(c1ccc(F)cc1)C1CCCCO1 (single isomer, unassigned) [Example 358] | 1000 |  |  | 
2 | 8.3 | 370 |  |  | CC[C@H]1CN(C(C)c2ccc(OC(F)(F)F)cc2)[C@H](C)CN1c1cc(=O)n(C)c2ccc(C#N)nc12 (single isomer, unassigned) [Example 1141] |  | 470 |  | 
3 | 16 | 110 |  |  | CC(c1cccc(C(F)F)n1)N1C[C@H](C)N(c2cc(=O)n(C)c3ccc(C#N)nc23)C[C@H]1C (stereo partly drawn) [Example 1223] |  | 520 |  | 
4 |  |  | 1800 | 1000 | Cc1c(F)cccc1CN1CCN(c2c(C#N)c(=O)n(C)c3ccc(C#N)nc23)C[C@H]1C [Example 1010] |  |  | 2000 | 
5 | 620 | 310 |  |  | CC[C@@H]1CN(c2cc(=O)n(C)c3ccc(C#N)nc23)[C@@H](C)CN1C(c1ccc(F)cc1)c1cccc(C(F)(F)F)n1 (stereo partly drawn) [Example 1113] |  | 1000 |  | 
6 | 10000 | 100000 |  |  | C[C@@H]1CN(c2cc(=O)n(C)c3ccc(C#N)nc23)[C@@H](C)CN1C(CO)c1ccc(F)cc1 (single isomer, unassigned) [Example 558] |  | 15000 |  | 
7 |  |  | 1500 | 9600 | C[C@@H]1CN(c2c(C#N)c(=O)n(C)c3ccc(C#N)nc23)[C@@H](C)CN1C(c1ccc(Cl)cc1)c1ccc(F)cn1 (single isomer, unassigned) [Example 830] |  |  |  | 1900
8 |  |  | 1100 | 3300 | C[C@@H]1CN(c2c(C#N)c(=O)n(C)c3ccc(C#N)nc23)CCN1Cc1ccccc1Cl [Example 997] |  |  | 20000 | 
9 | 890 | 740 |  |  | CCc1ccc(C(c2cccc(Cl)c2)N2C[C@H](C)N(c3cc(=O)n(C)c4ccc(C#N)nc34)C[C@H]2C)nc1 (single isomer, unassigned) [Example 355] | 340 |  |  | 
10 | 83 | 150 |  |  | CC[C@H]1CN(C(c2cccc(F)c2)c2ccc(OC)cn2)[C@H](CC)CN1c1cc(=O)n(C)c2ccc(C#N)nc12 (stereo partly drawn) [Example 1048] | 190 |  |  | 
11 |  |  | 210 | 370 | CC(c1c(F)cccc1F)N1CCN(c2c(C#N)c(=O)n(C)c3ccc(C#N)nc23)C[C@H]1C (single isomer, unassigned) [Example 950] |  |  |  | 3800
12 | 11 | 27 |  |  | CC[C@H]1CN(C(c2ccc(F)cc2)c2cc(C3CC3)on2)[C@H](CC)CN1c1cc(=O)n(C)c2ccc(C#N)nc12 (single isomer, unassigned) [Example 1075] |  | 37 |  | 
13 | 360 | 32 |  |  | CC[C@@H]1CN(c2cc(=O)n(C)c3ccc(C#N)nc23)[C@@H](C)CN1C(C)c1ccc(C(F)(F)F)cc1F (single isomer, unassigned) [Example 1085] |  | 160 |  | 
14 | 67 | 69 |  |  | CCC(c1ccc(C2CC2)cc1F)N1C[C@H](C)N(c2cc(=O)n(C)c3ccc(C#N)nc23)C[C@H]1C (stereo partly drawn) [Example 1219] |  | 320 |  | 
15 |  |  | 1500 | > 250000 | CC(c1ccc(OC(F)(F)F)cc1)N1CCN(c2c(C#N)c(=O)n(C)c3ccc(C#N)nc23)C[C@H]1C (single isomer, unassigned) [Example 962] |  |  |  | 20000
16 | 980 | 450 |  |  | C[C@@H]1CN(c2cc(=O)n(C)c3ccc(C#N)nc23)[C@@H](C)CN1C(c1ccc(F)cn1)c1cccc2c1OC(C)(C)C2 (single isomer, unassigned) [Example 467] |  | 20000 |  | 
17 | 9.5 | 32 |  |  | CC[C@H]1CN(C(C)c2ccc(OC(F)F)cc2)[C@H](CC)CN1c1cc(=O)n(C)c2ccc(C#N)nc12 (single isomer, unassigned) [Example 1373] |  | 95 |  | 
18 | 2300 | 5900 |  |  | CC[C@@H]1CN(c2cc(=O)n(C)c3ccc(C#N)nc23)[C@@H](C)CN1C(c1ccc(OC(F)(F)F)cc1)C1CC1 (stereo partly drawn) [Example 1190] | 1200 |  |  | 
19 | 9300 | 1500 |  |  | C[C@@H]1CN(c2cc(=O)n(C)c3ccc(C#N)nc23)[C@@H](C)CN1Cc1ccc(F)c(OC(F)(F)F)c1 [Example 585] | 2100 |  |  | 
20 |  |  | 35000 | 1000 | C[C@@H]1CN(c2c(C#N)c(=O)n(C)c3ccc(C#N)nc23)[C@@H](C)CN1C(c1ccccc1)c1cc(F)cc(F)c1 (single isomer, unassigned) [Example 814] |  |  |  | 5500
21 |  |  | 1900 | 32000 | Cc1cccc(C(C)N2CCN(c3c(C#N)c(=O)n(C)c4ccc(C#N)nc34)C[C@H]2C)n1 (stereo partly drawn) [Example 964] |  |  | 13000 | 

Row | IC50 (human DGKα; liposome (LIPGLO) assay) [nM] | IC50 (human DGKζ; liposome (LIPGLO) assay) [nM] | IC50 (human DGKα; DGKα liposome (LIPGLO) assay) [nM] | IC50 (human DGKζ; DGKζ liposome (LIPGLO) assay) [nM] | SMILES | EC50 (Human venous whole blood; [1]) [nM] | EC50 (Human venous whole blood; [2]) [nM] | EC50 (Human venous whole blood; [3]) [nM] | EC50 (Human venous whole blood; [4]) [nM]
22 |  |  | 18000 | 40000 | C[C@@H]1CN(c2c(C#N)c(=O)n(C)c3ccc(C#N)nc23)[C@@H](C)CN1C(c1ccc(F)cc1)c1ccc(C#N)cc1 (single isomer, unassigned) [Example 823] |  |  |  | 7600
23 | 48000 | 7800 |  |  | Cc1ccc(C(c2cccc(F)c2)N2C[C@H](C)N(c3cc(=O)n(C)c4ccc(C#N)nc34)C[C@H]2C)cn1 (single isomer, unassigned) [Example 395] |  | 6300 |  | 
24 | 100 | 350 |  |  | C[C@@H]1CN(c2cc(=O)n(C)c3ccc(C#N)nc23)[C@@H](C)CN1C(c1ccc(F)cc1)c1ccc(C(F)(F)F)cn1 (single isomer, unassigned) [Example 681] |  | 270 |  | 
25 | 2200 | 1400 |  |  | CC(C)c1ccc(C(C)N2C[C@H](C)N(c3cc(=O)n(C)c4ccc(C#N)nc34)C[C@H]2C)cc1 (single isomer, unassigned) [Example 1234] |  | 5400 |  | 
26 |  |  | 3000 | 1200 | CCc1ccc(C(c2ccc(F)cc2)N2CCN(c3c(C#N)c(=O)n(C)c4ccc(C#N)nc34)C[C@H]2C)cc1 (stereo partly drawn) [Example 885] |  |  |  | 2400
27 | 100 | 950 |  |  | C[C@@H]1CN(c2cc(=O)n(C)c3ccc(C#N)nc23)[C@@H](C)CN1C(c1ccc(F)cc1)C(F)(F)F (single isomer, unassigned) [Example 583] |  | 460 |  | 
28 | 59000 | 12000 |  |  | Cc1oncc1CN1C[C@H](C)N(c2cc(=O)n(C)c3ccc(C#N)nc23)C[C@H]1C [Example 1431] | 13000 |  |  | 
29 | 1100 | 1800 |  |  | CC[C@@H]1CN(c2cc(=O)n(C)c3ccc(C#N)nc23)[C@@H](CC)CN1Cc1ccc2c(c1)OC(F)(F)O2 [Example 1063] | 430 |  |  | 
30 | 6200 | 7500 |  |  | C[C@@H]1CN(c2cc(=O)n(C)c3ccc(C#N)nc23)[C@@H](C)CN1C(c1ccc(F)cc1)C(F)(F)CO (single isomer, unassigned) [Example 1310] | 3600 |  |  | 
31 | 4600 | 6600 |  |  | C[C@@H]1CN(c2cc(=O)n(C)c3ccc(C#N)nc23)[C@@H](C)CN1Cc1ccc(C(C)(C)C)cc1 [Example 587] | 2300 |  |  | 
32 |  |  | 12000 | 8600 | C[C@@H]1CN(c2c(C#N)c(=O)n(C)c3ccc(C#N)nc23)[C@@H](C)CN1C(c1ccc(F)cc1)c1cnn(C)c1 (stereo partly drawn) [Example 846] |  |  | 5100 | 
33 | 1100 | 630 |  |  | C[C@@H]1CN(c2cc(=O)n(C)c3ccc(C#N)nc23)[C@@H](C)CN1Cc1cc(F)c(F)c(F)c1 [Example 1235] | 3300 |  |  | 
34 | 43000 | 720 |  |  | CC(c1ccc(F)cc1)N1C[C@@H](C)N(c2cc(=O)n(C)c3ccc(C#N)nc23)C[C@@H]1CO (single isomer, unassigned) [Example 1178] |  | 3100 |  | 
35 |  |  | 2700 | 4700 | Cc1ccc(CN2CCN(c3c(C#N)c(=O)n(C)c4ccc(C#N)nc34)C[C@H]2C)cc1F [Example 1002] |  |  | 5500 | 
36 |  |  | 310 | 800 | C[C@@H]1CN(c2c(C#N)c(=O)n(C)c3ccc(C#N)nc23)CCN1Cc1cccc(C(F)(F)F)n1 [Example 991] |  |  | 11000 | 
37 |  |  | 2500 | 4000 | C[C@@H]1CN(c2c(C#N)c(=O)n(C)c3ccc(C#N)nc23)CCN1C(c1cccc(Cl)c1)c1ccc(F)cn1 (stereo partly drawn) [Example 926] |  |  | 1200 | 
38 | 1400 | 13000 |  |  | CC[C@H]1CN(C(C)c2ccc(C(F)(F)F)cc2)[C@H](C)CN1c1cc(=O)n(C)c2ccc(C#N)nc12 (single isomer, unassigned) [Example 1143] |  | 4000 |  | 
39 |  |  | 2600 | 7000 | Cc1ccc(F)c(CN2CCN(c3c(C#N)c(=O)n(C)c4ccc(C#N)nc34)C[C@H]2C)c1 [Example 1006] |  |  | 11000 | 
40 | 750 | 1700 |  |  | CC(c1ccc(C#N)cc1F)N1C[C@H](C)N(c2cc(=O)n(C)c3ccc(C#N)nc23)C[C@H]1C (single isomer, unassigned) [Example 1226] |  | 8700 |  | 
41 | 35000 | 19000 |  |  | C[C@@H]1CN(c2cc(=O)n(C)c3ccc(C#N)nc23)[C@@H](C)CN1C(c1ccc(F)cc1)c1cncc(F)c1 (single isomer, unassigned) [Example 415] | 16000 |  |  | 
